Data taken from US20240148821A1, “PHARMACEUTICAL USE OF CYCLIC PEPTIDE COMPOUND” (CHUGAI SEIYAKU KABUSHIKI KAISHA, priority 2021, published 2024).
Bridge positions count the residues as written; N and C are the ends. Square brackets hold non-standard residues; d marks the D form. Peptide text beside a SMILES is read from it. * marks the point of attachment. hPhe(3-Cl-4-CF3) = N[C@@H](CCc1ccc(C(F)(F)F)c(Cl)c1)C(=O)O; hPhe(3-F,4-CF3) = N[C@@H](CCc1ccc(C(F)(F)F)c(F)c1)C(=O)O; NMePhe(4-Me) = CN[C@@H](Cc1ccc(C)cc1)C(=O)O; NMeGly(cPent) = CN[C@H](C(=O)O)C1CCCC1; NMehPhe = CN[C@@H](CCc1ccccc1)C(=O)O; NMeCha = CN[C@@H](CC1CCCCC1)C(=O)O; cisHyp = O=C(O)[C@@H]1C[C@H](O)CN1; NMeD = CN[C@@H](CC(=O)O)C(=O)O; CH2CONHtBu = CC(C)(C)NC(=O)C*; NMeL = CN[C@@H](CC(C)C)C(=O)O; NMeV = CN[C@H](C(=O)O)C(C)C; d(β3hA) = C[C@@H](N)CC(=O)O; NMeS = CN[C@@H](CO)C(=O)O; NMeA = CN[C@@H](C)C(=O)O; Piperidide = C1CCN(*)CC1; Pra = C#CC[C@H](N)C(=O)O; dNMeA = CN[C@H](C)C(=O)O; Ac5c = NC1(C(=O)O)CCCC1; Aze = O=C(O)[C@@H]1CCN1; CH2CMe2OH = CC(C)(O)C*; Aib = CC(C)(N)C(=O)O; Isopentyl = CC(C)CC*; NEtG = CCNCC(=O)O; Sar = CNCC(=O)O

Legend:
[1] = test system: Human pancreatic cancer cell line AsPC-1 (G12D mutation Kras); experiment: AsPC-1 cell growth inhibition (AsPC-1 CGI); format: cell-based; conditions: read-out: AsPC-1 cell growth inhibition, 50% growth inhibitory concentration (IC50 value); 96 hours, CellTiter-Glo, values classified in ranges
Protocol: Test compounds were serially dilated with dimethyl sulfoxide, and 200 nL was then dispensed to a U-bottom 96-well plate using Labcyte Echo. […] The cell suspension was dispensed to a. plate containing a test compound at 100 μL per well and incubated at 37° C. in a 5% carbon dioxide gas incubator. 96 hours later, 80 μL of CellTiter-Glo (Promega) was added to each well and fluorescence was measured.

[2] = biological target: protein-protein interaction between Kras and SOS1 (biotin-tagged human Kras loaded with GDP, His-tagged human SOS1) (Homo sapiens (Human), UniProt P01116, G12D); experiment: Protein-protein interaction inhibition between Kras and SOS1 (KrasG12D-SOS PPI) using AlphaScreen; format: biochemical; conditions: AlphaScreen; biotin-tagged human Kras loaded with GDP, His-tagged human SOS1; read-out: KRAS G12D-SOS PPI IC50;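 further: kras produced in E. coli, Ni-coupled donor beads and streptavidin acceptor beads, excitation 680 nm with emission detected at 520–620 nm via singlet oxygen transfer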

Row | SMILES | IC50 [1] [nM] | IC50 [2] [nM]
1 | CC[C@H](C)[C@@H]1NC(=O)[C@H](C)N(C)C(=O)C[C@@H](C)NC(=O)[C@H](C2CCCC2)N(C)C(=O)C2(CCCC2)NC(=O)[C@@H]2CCCN2C(=O)[C@H](CCc2ccc(C(F)(F)F)c(Cl)c2)NC(=O)[C@@H](C)N(C)C(=O)[C@H](Cc2ccc(C)cc2)N(C)C(=O)[C@@H]2CCN2C(=O)CN(C)C1=O [Compound 1461] (cyclo([Ac5c][NMeGly(cPent)][d(β3hA)][NMeA]I[Sar][Aze][NMePhe(4-Me)][dNMeA][hPhe(3-Cl-4-CF3)]P)) | > 500 | 37
2 | C#CC[C@@H]1NC(=O)[C@H](CC(C)C)N(C)C(=O)C[C@@H](C)NC(=O)[C@H](CC(C)C)N(C)C(=O)C(C)(C)NC(=O)[C@H](CC(C)C)N(C)C(=O)[C@H](CCc2ccc(C(F)(F)F)c(F)c2)NC(=O)CN(C)C(=O)[C@H](CC2CCCCC2)N(C)C(=O)CN(C)C(=O)CN(C)C1=O [Compound 1474] (cyclo([Aib][NMeL][d(β3hA)][NMeL][Pra][Sar][Sar][NMeCha][Sar][hPhe(3-F,4-CF3)][NMeL])) | > 500 | 240
3 | CC[C@H](C)[C@@H]1NC(=O)[C@H](COCC(C)(C)O)N(C)C(=O)C[C@@H](C)NC(=O)[C@H](CC(C)C)N(C)C(=O)C(C)(C)NC(=O)[C@H](CC(C)C)N(C)C(=O)[C@H](CCc2ccc(C(F)(F)F)c(Cl)c2)NC(=O)CN(C)C(=O)[C@H](COCCC(C)C)N(C)C(=O)CN(C)C(=O)CN(CC)C1=O [Compound 1476] (cyclo([Aib][NMeL][d(β3hA)][NMeS](CH2CMe2OH)I[NEtG][Sar][NMeS](Isopentyl)[Sar][hPhe(3-Cl-4-CF3)][NMeL])) | > 500 | 46
4 | CC[C@H](C)[C@@H]1NC(=O)[C@H](C)N(C)C(=O)C[C@@H](C)NC(=O)[C@H](C2CCCC2)N(C)C(=O)C2(CCCC2)NC(=O)[C@@H]2CCCN2C(=O)[C@H](CCc2ccc(C(F)(F)F)c(Cl)c2)NC(=O)CN(C)C(=O)[C@H](CC2CCCCC2)N(C)C(=O)[C@@H]2CCN2C(=O)[C@H](C)N(C)C1=O [Compound 1491] (cyclo([Ac5c][NMeGly(cPent)][d(β3hA)][NMeA]I[NMeA][Aze][NMeCha][Sar][hPhe(3-Cl-4-CF3)]P)) | > 500 | 3.7
5 | CC[C@H](C)[C@@H]1NC(=O)[C@H](COCC(=O)NC(C)(C)C)N(C)C(=O)C[C@@H](C)NC(=O)[C@H](CC(C)C)N(C)C(=O)C(C)(C)NC(=O)[C@H](CC(C)C)N(C)C(=O)[C@H](CCc2ccc(C(F)(F)F)c(Cl)c2)NC(=O)CN(C)C(=O)[C@H](COCCC(C)C)N(C)C(=O)CN(C)C(=O)CN(CC)C1=O [Compound 1495] (cyclo([Aib][NMeL][d(β3hA)][NMeS](CH2CONHtBu)I[NEtG][Sar][NMeS](Isopentyl)[Sar][hPhe(3-Cl-4-CF3)][NMeL])) | > 500 | 120
6 | CC(C)C[C@H]1C(=O)N[C@@H](C(C)C)C(=O)N(C)CC(=O)N(C)CC(=O)N(C)[C@@H](CC2CCCCC2)C(=O)N(C)CC(=O)N[C@@H](CCc2ccc(C(F)(F)F)c(F)c2)C(=O)N(C)[C@@H](CC(C)C)C(=O)NC(C)(C)C(=O)N(C)[C@@H](CC(C)C)C(=O)N[C@H](C)CC(=O)N1C [Compound 1511] (cyclo([Aib][NMeL][d(β3hA)][NMeL]V[Sar][Sar][NMeCha][Sar][hPhe(3-F,4-CF3)][NMeL])) | > 500 | 190
7 | CC[C@H](C)[C@@H]1NC(=O)[C@H](CC(C)C)N(C)C(=O)C[C@@H](C)NC(=O)[C@H](C2CCCC2)N(C)C(=O)C2(CCCC2)NC(=O)[C@@H]2CCCN2C(=O)[C@H](CCc2ccc(C(F)(F)F)c(Cl)c2)NC(=O)[C@@H](C)N(C)C(=O)[C@H](Cc2ccc(C)cc2)N(C)C(=O)[C@@H]2CCN2C(=O)CN(C)C1=O [Compound 1517] (cyclo([Ac5c][NMeGly(cPent)][d(β3hA)][NMeL]I[Sar][Aze][NMePhe(4-Me)][dNMeA][hPhe(3-Cl-4-CF3)]P)) | > 500 | 49
8 | CC[C@H](C)[C@@H]1NC(=O)[C@H](CC(C)C)N(C)C(=O)C[C@@H](C)NC(=O)[C@H](CC(C)C)N(C)C(=O)C(C)(C)NC(=O)[C@H](COCC(C)(C)O)N(C)C(=O)[C@H](CCc2ccc(C(F)(F)F)c(Cl)c2)NC(=O)CN(C)C(=O)[C@H](COCCC(C)C)N(C)C(=O)CN(C)C(=O)CN(CC)C1=O [Compound 1519] (cyclo([Aib][NMeL][d(β3hA)][NMeL]I[NEtG][Sar][NMeS](Isopentyl)[Sar][hPhe(3-Cl-4-CF3)][NMeS](CH2CMe2OH))) | > 500 | 120
9 | CC[C@H](C)[C@@H]1NC(=O)[C@H](CC(C)C)N(C)C(=O)C[C@@H](C)NC(=O)[C@H](CC(C)C)N(C)C(=O)C2(CCCC2)NC(=O)[C@@H]2C[C@H](O)CN2C(=O)[C@H](CCc2ccc(C(F)(F)F)c(F)c2)NC(=O)CN(C)C(=O)[C@H](CC2CCCCC2)N(C)C(=O)CN(C)C(=O)CN(C)C1=O [Compound 1529] (cyclo([Ac5c][NMeL][d(β3hA)][NMeL]I[Sar][Sar][NMeCha][Sar][hPhe(3-F,4-CF3)][cisHyp])) | > 500 | 11
10 | CC[C@H](C)[C@@H]1NC(=O)[C@H](C)N(C)C(=O)C[C@@H](C)NC(=O)[C@H](C2CCCC2)N(C)C(=O)C2(CCCC2)NC(=O)[C@@H]2CCCN2C(=O)[C@H](CCc2ccc(C(F)(F)F)c(Cl)c2)NC(=O)[C@@H](C)N(C)C(=O)[C@H](Cc2ccc(C)cc2)N(C)C(=O)[C@@H]2CCN2C(=O)[C@H](C)N(C)C1=O [Compound 1536] (cyclo([Ac5c][NMeGly(cPent)][d(β3hA)][NMeA]I[NMeA][Aze][NMePhe(4-Me)][dNMeA][hPhe(3-Cl-4-CF3)]P)) | > 500 | 21
11 | CC[C@H](C)[C@@H]1NC(=O)[C@H](C)N(C)C(=O)C[C@@H](C)NC(=O)[C@H](C2CCCC2)N(C)C(=O)C2(CCCC2)NC(=O)[C@@H]2CCCN2C(=O)[C@H](CCc2ccc(C(F)(F)F)c(Cl)c2)NC(=O)[C@@H](C)N(C)C(=O)[C@H](CC2CCCCC2)N(C)C(=O)[C@@H]2CCN2C(=O)CN(C)C1=O [Compound 1539] (cyclo([Ac5c][NMeGly(cPent)][d(β3hA)][NMeA]I[Sar][Aze][NMeCha][dNMeA][hPhe(3-Cl-4-CF3)]P)) | > 500 | 54
12 | CC[C@H](C)[C@@H]1NC(=O)[C@H](C)N(C)C(=O)C[C@@H](C(=O)N2CCCCC2)N(C)C(=O)[C@H](C(C)C)N(C)C(=O)C2(CCCC2)NC(=O)[C@@H]2CCCN2C(=O)[C@H](CCc2ccc(C(F)(F)F)c(Cl)c2)NC(=O)CN(C)C(=O)[C@H](CC2CCCCC2)N(C)C(=O)[C@@H]2CCN2C(=O)[C@H](CCc2ccccc2)N(C)C1=O [Compound 1559] ([NMeA]I[NMehPhe][Aze][NMeCha][Sar][hPhe(3-Cl-4-CF3)]P[Ac5c][NMeV][NMeD]-Piperidide; lactam N-11) | > 500 | 28
13 | CC[C@H](C)[C@@H]1NC(=O)[C@H](C)N(C)C(=O)C[C@@H](C(=O)N2CCCCC2)N(C)C(=O)[C@H](C(C)C)N(C)C(=O)C2(CCCC2)NC(=O)[C@@H]2CCCN2C(=O)[C@H](CCc2ccc(C(F)(F)F)c(Cl)c2)NC(=O)CN(C)C(=O)[C@H](CC2CCCCC2)N(C)C(=O)[C@@H]2CCN2C(=O)[C@H](C)N(C)C1=O [Compound 1562] ([NMeA]I[NMeA][Aze][NMeCha][Sar][hPhe(3-Cl-4-CF3)]P[Ac5c][NMeV][NMeD]-Piperidide; lactam N-11) | > 500 | 4.8
